Laboratory results taken from publication PMC4492579, “Potent and Selective Triazole-Based Inhibitors of the Hypoxia-Inducible Factor Prolyl-Hydroxylases with Activity in the Murine Brain” (PLoS ONE, 2015).
Counter-ions that a name gives are not always drawn. Values belong to the molecule of their own block, whether it stands above or below them.

Tests used:
PHD2 = PHD2 (Homo sapiens, UniProt Q9GZT9); test: Competition-based NMR reporter ligand displacement assay ([13C]-2OG / [13C]-CODD); assay type: binding; settings: 50 μM apo-PHD2, 400 μM Zn(II), 400 μM competitor
Sequence of PHD2 (Q9GZT9 whole entry): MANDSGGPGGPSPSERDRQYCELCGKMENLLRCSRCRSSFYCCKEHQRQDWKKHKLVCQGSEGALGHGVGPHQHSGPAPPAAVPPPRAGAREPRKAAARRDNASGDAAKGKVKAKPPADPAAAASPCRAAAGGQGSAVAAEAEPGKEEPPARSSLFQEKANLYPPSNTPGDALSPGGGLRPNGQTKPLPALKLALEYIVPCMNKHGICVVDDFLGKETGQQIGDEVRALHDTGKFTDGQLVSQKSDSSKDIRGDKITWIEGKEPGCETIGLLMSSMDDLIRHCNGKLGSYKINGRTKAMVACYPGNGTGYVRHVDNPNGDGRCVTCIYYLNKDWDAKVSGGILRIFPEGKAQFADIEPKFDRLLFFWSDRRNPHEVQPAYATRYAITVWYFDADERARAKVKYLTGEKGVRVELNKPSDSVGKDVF
Protocol: For 2OG displacement assays, selective ^1H-^13C 1D-HSQC experiments were conducted at 700 MHz using a Bruker Avance III spectrometer equipped with an inverse TCI cryoprobe optimized for ^1H observation. The CLIP-HSQC sequence was used (without ^13C decoupling). Typical experimental parameters were as follows: acquisition time 0.58 s, relaxation delay 2 s, number of transients 256−1600. The 1JCH was set to 160 Hz. For the selective version of the experiment, a 6.8 ms Q3 180 degree pulse was used, and selective irradiation was applied at the appropriate [^13C] chemical shift. Three millimeter MATCH tubes with a 160 μL final sample volume were used. Solutions were buffered using Tris-D11 50 mM (pH 7.5) dissolved in 90% H2O and 10% D2O. Assays were conducted at 298 K in solutions typically containing 50 μM apo-PHD2, 400 μM Zn(II), 50 μM 1,2,3,4-[^13C]-2OG or [^13C]-labeled CODD (uniformly [^13C]-labeled at proline-564) and 400 μM competitor (except unlabeled CODD competitor used at 800 μM). Selective irradiation was applied at 30.5 ppm for [^13C]-2OG and 24.25 ppm for [^13C]-labeled CODD. Percentage displacement was calculated according to equation: (I−I0)/(Iblank−I0) where I 0 is the intensity of the reporter in the presence of protein but without inhibitor, I is the intensity of the reporter in the presence of protein and inhibitor, and I blank is the intensity of the reporter without protein or inhibitor.
The results reveal that the previously described inhibitor IOX2 displaces 2OG from PHD2 (S3A Fig), consistent with its predicted binding mode. […] Previous crystallographic studies have shown that the HIF substrate can still bind even when the 2OG active site is occupied by some, but not all, inhibitors.

HIF1α and HIF2α = test: HIFα induction in tissues of treated mice (immunoblotting); assay type: in vivo, C57BL/6 mice; settings: i.p.
Protocol: All animal experiments were performed on male C57BL/6 mice aged 3 months (purchased from Harlan Laboratories, Blackthorn) housed in specific pathogen free conditions with free access to water and standard chow. Mice were injected intraperitonially with the inhibitor (dissolved in Hanks’ buffered saline solution, pH 7.0, 5% DMSO final) or vehicle at the indicated doses for the indicated time as previously described. Tissues from treated mice were harvested and ‘snap frozen’ with liquid nitrogen before being stored at -80°C. For immunoblotting, a portion of the tissues was removed, weighed and homogenised in urea/SDS buffer before being analysed by immunoblotting with HIF1α rabbit polyclonal antibody (10006421, Cayman Chemical, 1:1000) or HIF2α rabbit polyclonal antibody (PM9 [27], 1:1000). For RNA extraction, tissues were ‘snap frozen’ in liquid nitrogen immediately after harvesting, then ground to a fine powder using a cryogenic tissue pulveriser, keeping samples on dry ice at all times and processed for total RNA extraction using the mirVana miRNA isolation kit (AM1560, Life Technologies) according to the manufacturer’s protocol for processing frozen tissues. All animal procedures were compliant with the UK Home Office Animals (Scientific Procedures) Act 1986 and Local Ethical Review Procedures (University of Oxford Medical Sciences Division Ethical Review Committee).
The inhibitors or vehicle controls were injected intraperitonially into wild type C57BL/6 mice and sacrificed after the indicated treatment time before harvesting their tissues to be analysed for HIFα levels by immunoblotting.

JMJD2A (KDM4A) = biological target: T1, JMJD2A (KDM4A) (Homo sapiens, UniProt O75164); parameters: method as in PMID 26682036; settings: cited from earlier work
T1 sequence (O75164 1-1064): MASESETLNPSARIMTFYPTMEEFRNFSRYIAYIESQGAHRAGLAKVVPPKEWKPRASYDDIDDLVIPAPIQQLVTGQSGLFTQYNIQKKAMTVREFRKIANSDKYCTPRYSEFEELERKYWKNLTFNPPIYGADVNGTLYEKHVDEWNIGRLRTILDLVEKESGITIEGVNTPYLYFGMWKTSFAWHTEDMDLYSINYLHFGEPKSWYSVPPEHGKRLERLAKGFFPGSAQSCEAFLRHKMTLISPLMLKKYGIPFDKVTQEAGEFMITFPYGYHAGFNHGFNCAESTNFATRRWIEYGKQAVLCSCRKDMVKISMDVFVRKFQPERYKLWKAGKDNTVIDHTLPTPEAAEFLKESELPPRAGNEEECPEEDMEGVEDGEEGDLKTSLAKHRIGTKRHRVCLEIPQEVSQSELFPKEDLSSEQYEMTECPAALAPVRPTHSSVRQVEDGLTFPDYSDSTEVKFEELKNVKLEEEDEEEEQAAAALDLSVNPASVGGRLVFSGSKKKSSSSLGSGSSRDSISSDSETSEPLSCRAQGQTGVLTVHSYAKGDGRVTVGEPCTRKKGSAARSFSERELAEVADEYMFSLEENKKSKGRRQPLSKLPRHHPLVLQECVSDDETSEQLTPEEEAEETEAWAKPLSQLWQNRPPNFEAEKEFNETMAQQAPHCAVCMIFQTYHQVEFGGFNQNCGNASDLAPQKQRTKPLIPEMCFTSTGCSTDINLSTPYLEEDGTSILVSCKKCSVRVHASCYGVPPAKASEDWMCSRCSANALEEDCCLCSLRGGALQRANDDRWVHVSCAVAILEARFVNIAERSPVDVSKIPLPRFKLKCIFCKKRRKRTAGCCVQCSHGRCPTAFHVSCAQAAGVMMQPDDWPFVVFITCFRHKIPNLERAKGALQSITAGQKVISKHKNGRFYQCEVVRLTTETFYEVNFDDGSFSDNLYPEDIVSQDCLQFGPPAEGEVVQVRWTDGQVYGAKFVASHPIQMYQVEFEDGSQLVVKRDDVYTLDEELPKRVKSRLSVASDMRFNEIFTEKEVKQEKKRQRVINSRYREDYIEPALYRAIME

JMJD2C (KDM4C) = biological target: T2, JMJD2C (KDM4C) (Homo sapiens, UniProt Q9H3R0); parameters: method as in PMID 26682036; settings: cited from earlier work
T2 sequence (Q9H3R0 1-1056): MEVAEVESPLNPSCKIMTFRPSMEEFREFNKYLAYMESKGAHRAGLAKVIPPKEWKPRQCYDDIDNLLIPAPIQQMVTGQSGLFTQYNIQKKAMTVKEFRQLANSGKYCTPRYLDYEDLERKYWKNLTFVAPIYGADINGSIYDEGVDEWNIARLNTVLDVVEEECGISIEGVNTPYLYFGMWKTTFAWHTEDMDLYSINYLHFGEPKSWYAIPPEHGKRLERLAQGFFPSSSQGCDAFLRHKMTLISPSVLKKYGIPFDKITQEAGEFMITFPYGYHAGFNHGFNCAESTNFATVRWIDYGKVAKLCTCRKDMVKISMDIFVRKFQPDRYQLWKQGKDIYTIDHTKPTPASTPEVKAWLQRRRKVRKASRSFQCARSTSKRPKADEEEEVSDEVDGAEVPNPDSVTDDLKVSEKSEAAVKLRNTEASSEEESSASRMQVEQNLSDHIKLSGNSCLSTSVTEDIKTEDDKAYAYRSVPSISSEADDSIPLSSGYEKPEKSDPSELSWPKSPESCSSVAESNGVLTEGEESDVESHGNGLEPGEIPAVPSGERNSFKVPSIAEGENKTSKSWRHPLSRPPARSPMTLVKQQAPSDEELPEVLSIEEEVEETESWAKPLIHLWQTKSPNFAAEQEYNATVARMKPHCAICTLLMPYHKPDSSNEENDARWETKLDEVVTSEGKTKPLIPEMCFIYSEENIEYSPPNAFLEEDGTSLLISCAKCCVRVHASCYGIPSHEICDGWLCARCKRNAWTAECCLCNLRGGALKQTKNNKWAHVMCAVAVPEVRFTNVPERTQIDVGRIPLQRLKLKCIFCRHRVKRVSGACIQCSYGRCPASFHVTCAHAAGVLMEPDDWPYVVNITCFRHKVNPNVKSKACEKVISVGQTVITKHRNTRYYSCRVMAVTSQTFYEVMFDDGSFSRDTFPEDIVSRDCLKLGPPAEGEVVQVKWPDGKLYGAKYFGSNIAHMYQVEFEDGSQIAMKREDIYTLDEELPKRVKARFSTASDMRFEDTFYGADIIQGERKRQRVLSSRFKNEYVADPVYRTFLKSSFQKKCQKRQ

BBOX1 = biological target: T3, BBOX1 (Homo sapiens, UniProt O75936); parameters: method as in PMID 22730246; settings: cited from earlier work
T3 sequence (O75936 1-387): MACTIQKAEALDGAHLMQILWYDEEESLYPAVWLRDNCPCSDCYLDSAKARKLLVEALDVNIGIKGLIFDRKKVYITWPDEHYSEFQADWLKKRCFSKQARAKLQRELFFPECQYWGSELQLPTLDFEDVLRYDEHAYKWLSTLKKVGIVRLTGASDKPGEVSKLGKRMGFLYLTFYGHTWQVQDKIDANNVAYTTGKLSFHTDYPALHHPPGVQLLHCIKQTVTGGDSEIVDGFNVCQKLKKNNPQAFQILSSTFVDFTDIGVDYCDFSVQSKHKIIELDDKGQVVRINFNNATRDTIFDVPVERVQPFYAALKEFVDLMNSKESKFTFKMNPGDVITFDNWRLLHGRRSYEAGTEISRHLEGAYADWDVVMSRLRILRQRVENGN

FIH = FIH (Homo sapiens, UniProt Q9NWT6); test: FIH liquid chromatography-mass spectrometry assay (RapidFire)
Sequence of FIH (Q9NWT6 whole entry): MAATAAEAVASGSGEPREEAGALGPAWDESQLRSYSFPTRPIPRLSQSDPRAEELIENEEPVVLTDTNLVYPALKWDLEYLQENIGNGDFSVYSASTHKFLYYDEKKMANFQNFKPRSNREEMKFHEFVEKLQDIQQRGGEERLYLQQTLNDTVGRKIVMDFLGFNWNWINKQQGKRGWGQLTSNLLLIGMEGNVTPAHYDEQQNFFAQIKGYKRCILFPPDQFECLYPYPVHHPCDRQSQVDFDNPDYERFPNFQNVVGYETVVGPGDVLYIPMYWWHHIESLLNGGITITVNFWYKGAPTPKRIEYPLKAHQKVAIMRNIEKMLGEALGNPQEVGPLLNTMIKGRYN
Protocol: After 15 minutes, the enzyme reaction was stopped by the addition of 4 ml 10% formic acid and the reaction mixture transferred to a RapidFire RF360 high throughput sampling robot. Samples were aspirated under vacuum onto a C4 Solid Phase Extraction (SPE) cartridge. […] Ion chromatogram data was extracted for the non-hydroxylated peptide substrate and the hydroxylated peptide product and peak area data for extracted ion chromatograms were integrated using RapidFire Integrator software. Percentage conversion of substrate to product was calculated in Microsoft Excel and IC50 values were calculated using Graphpad Prism 5.

[1] = 1 h, equimolar: IOX2 37.7 mg/kg, IOX4 35 mg/kg, DMOG 75 mg/kg

melting point: ≥ 316.6 °C (dec.)
Compound: O=C(O)c1ccc(-n2[nH]cc(-n3ccnn3)c2=O)nc1 (as salt: hydrochloride) [compound 1, 6-(5-oxo-4-(1H-1,2,3-triazol-1-yl)-2,5-dihydro-1H-pyrazol-1-yl)pyridine-3-carbocylic acid hydrochloride]

displacement of [13C]-2OG from PHD2 (PHD2): displace both 2OG and CODD | displacement of [13C]-CODD from PHD2 (PHD2): displace both 2OG and CODD
Compound: O=C(O)Cc1cs/c(=N/C(=O)CS(=O)(=O)Cc2ccc3ccccc3c2)n1O [BNS, bicyclic naphthalenylsulfone hydroxythiazole]

Compound: COC(=O)CNC(=O)C(=O)OC [DMOG, dimethyloxalylglycine]
HIF1α and HIF2α induction in liver, kidney and heart (HIF1α and HIF2α; [1]): induction of HIF1α and HIF2α | HIF1α and HIF2α induction in the brain (HIF1α and HIF2α; [1]): not

Compound: O=C(O)CNC(=O)c1nc(Cl)c2ccccc2c1O [IOX3]
HIF1α induction in mouse liver (HIF1α and HIF2α; IOX2 37.7 mg/kg, IOX3 30 mg/kg (equivalent molar dose), 1 h and […]): lower and shorter induction of HIF1α

IC50 (FIH): 2.3 µM
Compound: O=C(O)CNC(=O)C(=O)O [NOG, N-oxalylglycine]
IC50 (JMJD2A (KDM4A)): 0.2 µM | IC50 (JMJD2C (KDM4C)): 0.6 µM | IC50 (BBOX1): 0.39 µM
